Measured values taken from patent US10080366B2, “Agent for increasing sugar content in fruit” (RIKEN, priority 2012, dated 2018).
Values joined by “and” are separate entries in the source; they are usually repeats but may differ in a detail not shown here. Identical values can stand only once. Like-named read-outs stand apart in the source and are kept apart here.

Key:
[1] = system: fruits of cherry tomato
Procedure: (§1) An agent for increasing a sugar content in a fruit (containing Sorbon T-20 as a spreader/sticker at a final concentration of 200 μL/L) diluted with water to have a potassium hydrogen carbonate concentration of 10 g/L was prepared. The masses of fruits of apple and cherry tomato purchased on the market were measured. Then, the prepared agent for increasing a sugar content in a fruit was applied by spraying to the fruits. The fruits were allowed to stand still in an air-conditioned greenhouse, and the masses of the apples and cherry tomatoes were measured on the date of application (date of application: Nov. 30, 2011; date of test: Dec. 5, 2011). In addition, as a control, the masses of untreated apples and cherry tomatoes were measured in the same manner.
(§2) The estimated transpiration ratio (%) was calculated by “the estimated amount (g) of transpiration/the mass (g) before application×100.”
(§3) The transpiration ratio was calculated by “the estimated transpiration ratio of the target sample (treated by application of potassium hydrogen carbonate or untreated)/the estimated transpiration ratio of the untreated sample.”

[2] = system: fruits of apple
Procedure: as §1, §2, §3

[3] = system: Tomato (Regina); settings: 10 g/L, three times at intervals of one week
Procedure: (§4) To each of the plants shown in Table 15 below, an aqueous potassium hydrogen carbonate solution (10 g/L) was applied three times at intervals of one week about one month before the harvest time. Each of the plants was harvested four weeks later. The degree of the fruit cracking of the fruit was compared with that of untreated fruit, and a fruit cracking-suppression ratio was determined. […] The fruit cracking ratio (%)=the number of pieces of the fruit which underwent fruit cracking/the total number of pieces of the fruit×100 The fruit cracking-suppression ratio (%)=(1−the fruit cracking ratio (%) of a treated group/the fruit cracking ratio (%) of an untreated group)×100

[4] = system: Cherry (Sato Nishiki); settings: 10 g/L, three times at intervals of one week; harvested four weeks later
Procedure: as §4

[5] = system: Grape (Nagano Purple), Grape (Riesling); settings: 10 g/L, three times at intervals of one week
Procedure: as §4

[6] = system: fruit of grape (variety: Red Globe)
Procedure: An agent for increasing a sugar content in a fruit (containing Sorbon T-20 as a spreader/sticker at a final concentration of 200 μL/L) diluted with water to have a potassium hydrogen carbonate concentration of 10 g/L was prepared. The mass of fruit of grape (variety: Red Globe) purchased on the market was measured. Then, the prepared agent for increasing a sugar content in a fruit was applied by spraying to the fruit of grape. Then, the fruit of grape was allowed to stand in an air-conditioned greenhouse (temperature: 25° C.), and the mass was measured over time (date of application: Apr. 27, 2011; dates of test: May 2, 2011, May 6, 2011, May 9, 2011, May 11, 2011, May 13, 2011, and May 16, 2011). In addition, as a control, the mass of untreated grape was measured on each date of measurement in the same manner.
On the basis of the measured mass, the estimated amount (cumulative value) of transpiration and the estimated amount of transpiration per day were calculated. The results are shown in Tables 5 and 6 and FIGS. 10 and 11.
Note that the vertical axis in FIG. 10 represents the mass (g) of the fruit of grape on each of the dates of measurement per 100 g of the fruit of grape on the date of application, and the vertical axis in FIG. 11 represents the estimated amount (g) of transpiration on each of the dates of measurement per 100 g of the fruit of grape on the date of application. The estimated amount (g) of transpiration on each of the dates of measurement per 100 g of the fruit of grape on the date of application=(the mass (g) of the fruit of grape on the date of application−the mass (g) of the fruit of grape on the date of measurement)/the mass of the fruit of grape on the date of application×100

[7] = approximately 3 weeks later (19 days later)

O=C([O-])O.[K+] [Potassium hydrogen carbonate, potassium hydrogen carbonate] was tested. Which “Transpiration ratio (treated/untreated)” value ([1]; 10 g/L) did it give?
Its value is 1.93.

What about the “Mass (g) on date of test” value ([1]; 10 g/L, Dec. 5) of the same compound?
Its value is 193.30 g.

What about the “Estimated amount (g) of transpiration” value ([1]; 10 g/L, Nov. 30 to Dec. 5) of the same compound?
The value was 21.75 g.

And the “Estimated transpiration ratio (%)” value ([1]; 10 g/L, Nov. 30 to Dec. 5)?
The value was 10.12%.

What about the “Mass (g) before application” value ([1]; Nov. 30) of the same compound?
Its value is 215.05 g.

What about the “Transpiration ratio (treated/untreated)” value ([2]; 10 g/L) of the same compound?
The value was 1.65.

What about the “Mass (g) on date of test” value ([2]; 10 g/L, Dec. 5) of the same compound?
The value was 263.69 g and 274.65 g.

And the “Estimated amount (g) of transpiration” value ([2]; 10 g/L, Nov. 30 to Dec. 5)?
Its value is 9.15 g and 11.66 g.

And the “Estimated transpiration ratio (%)” value ([2]; 10 g/L, Nov. 30 to Dec. 5)?
Its value is 3.35% and 3.72%.

And the “Estimated transpiration ratio (average) (%)” value ([2]; 10 g/L, average of two apples)?
The value was 3.54%.

And the “Mass (g) before application” value ([2]; Nov. 30)?
The value was 272.84 g and 286.31 g.

And the Fruit cracking-suppression ratio [3]?
The Fruit cracking-suppression ratio was 95%.

What about the Fruit cracking-suppression ratio [4] of the same compound?
Its Fruit cracking-suppression ratio is 98%.

And the Fruit cracking-suppression ratio ([5]; Nagano Purple)?
The Fruit cracking-suppression ratio was 97%.

What about the Fruit cracking-suppression ratio ([5]; Riesling) of the same compound?
Its Fruit cracking-suppression ratio is 98%.

And the “Estimated amount (g) of transpiration per 100 g of fruit on date of application” value ([6]; 5 days later)?
The value was 17.4 g.

What about the “Mass (g) of fruit per 100 g of fruit on date of application” value (shortened to “Mass (g) of fruit per 100 g of fruit”) ([6]; 5 days later (applied Apr. 27)) of the same compound?
The value was 82.6 g.

What about the “Estimated amount (g) of transpiration per 100 g of fruit on date of application” value ([6]; 9 days later) of the same compound?
Its value is 29.5 g.

And the “Mass (g) of fruit per 100 g of fruit” value ([6]; 9 days later)?
Its value is 70.5 g.

And the “Estimated amount (g) of transpiration per 100 g of fruit on date of application” value ([6]; 12 days later)?
The value was 37.2 g.

What about the “Mass (g) of fruit per 100 g of fruit” value ([6]; 12 days later) of the same compound?
Its value is 62.8 g.

And the “Estimated amount (g) of transpiration per 100 g of fruit on date of application” value ([6]; 14 days later)?
Its value is 42.6 g.

What about the “Mass (g) of fruit per 100 g of fruit” value ([6]; 14 days later) of the same compound?
The value was 57.4 g.

What about the “Estimated amount (g) of transpiration per 100 g of fruit on date of application” value ([6]; 16 days later) of the same compound?
The value was 47.9 g.

And the “Mass (g) of fruit per 100 g of fruit” value ([6]; 16 days later)?
The value was 52.1 g.

What about the “Estimated amount (g) of transpiration per 100 g of fruit on date of application” value ([6]; 19 days later) of the same compound?
The value was 55.3 g.

And the “Mass (g) of fruit per 100 g of fruit” value ([6]; 19 days later)?
Its value is 44.7 g.

What about the “mass as % of the mass on the date of application” value [6, 7] of the same compound?
The value was 44.7%.

What about the “ratio of transpiration of the fruit” value [6, 7] of the same compound?
The value was 55.3%.
